Where “and” joins values, the source holds several entries; their conditions need not be identical. Equal values may be shown once.
Columns and labels:
[1] = tested on: human G-CSF (G21) promoter; test: High-throughput luciferase reporter assay, G-CSF promoter (Screen III); details: G21 cells, 6 hours; for FOLD INDUCTION RELATIVE TO SOLVENT CONTROL, GCSF: Screen III activators; for FOLD INHIBITION RELATIVE TO SOLVENT CONTROL, GCSF: Screen III inhibitors
[2] = tested on: human growth hormone (532) promoter; test: High-throughput luciferase reporter assay, human Growth Hormone promoter (Screen III); assay type: cell-based; details: 532 cells, 6 hours; for FOLD INDUCTION RELATIVE TO SOLVENT CONTROL, hGH: Screen III activators; for FOLD INHIBITION RELATIVE TO SOLVENT CONTROL, hGH: Screen III inhibitors
MMTV (M10) promoter = test: High-throughput luciferase reporter assay, MMTV promoter (Screen III); assay type: cell-based, mouse; details: for FOLD INDUCTION RELATIVE TO SOLVENT CONTROL, MMTV: Screen III activators; for FOLD INDUCTION RELATIVE TO SOLVENT CONTROL, MMTV / FOLD INHIBITION RELATIVE TO SOLVENT CONTROL, MMTV: M10 cells, 6 hours; for FOLD INHIBITION RELATIVE TO SOLVENT CONTROL, MMTV: Screen III inhibitors
Procedure: pMluci and pSV2Neo, an antibiotic resistance plasmid (112), were co-transfected into NIH/3T3 mouse fibroblast cells using the calcium phosphate precipitation method (103) with a commercially available kit (Pharmacia, Piscataway N.J.). Two days later, cells were transferred to media containing 0.4 mg/ml G418 and were grown for an additional 10-14 days. G418-resistant clones were isolated by standard methods. Once sufficient cell numbers were obtained, clones were analyzed based on several criteria: constitutive luciferase production, induction of luciferase expression by dexamethasone (1 μm, Sigma, St. Louis, Mo.), satisfactory attachment to microtiter plates used in the high-throughput screen and acceptable standard deviation in multiple luciferase expression assays (see below for assay protocol). This analysis was carried out using the luciferase assay conditions described above. Of the clones which satisfied the above criteria for the high throuphput screen, one clone, M10, was selected for use.

Structure (SMILES) | FOLD INDUCTION RELATIVE TO SOLVENT CONTROL, GCSF [1] [fold] | FOLD INDUCTION RELATIVE TO SOLVENT CONTROL, hGH [2] [fold] | FOLD INDUCTION RELATIVE TO SOLVENT CONTROL, MMTV (MMTV (M10) promoter) [fold] | FOLD INDUCTION RELATIVE TO SOLVENT CONTROL, MMTV (MMTV (M10) promoter; 360 min) | ability to activate the MMTV promoter with methanol replacing DMSO (MMTV (M10) promoter; chemical dissolved in methanol instead of DMSO) | FOLD INHIBITION RELATIVE TO SOLVENT CONTROL, GCSF [1] [fold] | FOLD INHIBITION RELATIVE TO SOLVENT CONTROL, hGH [2] [fold] | FOLD INHIBITION RELATIVE TO SOLVENT CONTROL, MMTV (MMTV (M10) promoter) [fold]
CCCCCCCCCCCCCCCC(=O)OCC(COC(=O)CCCCCCCCCCCCCCC)OC(=O)CCCCCCCCCCCCCCC [compound 856] | 0.28 | 6.49 | 0.42 |  |  |  |  | 
CC(C)(C)c1ccc(Br)cc1 [compound 2001] | 3.11 | 0.74 | 1.12 |  |  |  |  | 
c1ccc(-c2cccc(-c3ccccn3)n2)nc1 [compound 453] | 0.79 | 0.58 |  | 13.3 fold and 13.30 fold | did not affect its ability to activate the MMTV promoter |  |  | 
CCn1c(=O)[nH]c2ccccc21 [compound 322] | 0.60 | 11.18 | 1.12 |  |  |  |  | 
Nc1nc(=O)n([C@H]2C[C@H](O)[C@@H](CO)O2)cc1Br [compound 542] | 6.28 | 1.08 | 1.26 |  |  |  |  | 
Nc1nccs1 [compound 1550] | 0.04 | 5.44 | 0.87 |  |  |  |  | 
c1ncncn1 [compound 473] | > 3 | 0.50 | 0.87 |  |  |  |  | 
CC(C=O)=CC=CC(C)=CC=CC=C(C)C=CC=C(C)C=CC1=C(C)CCCC1(C)C [compound 519] | 1.15 | 0.68 | 2.76 |  |  |  |  | 
Nc1c(Cl)ncnc1Cl [compound 1269] | 0.72 | 0.91 | 2.18 |  |  |  |  | 
O=S(=O)(O)c1ccc(-c2ccnc(-c3nnc(-c4ccc(S(=O)(=O)O)cc4)c(-c4ccc(S(=O)(=O)O)cc4)n3)c2)cc1 [compound 1648] |  |  |  |  |  | 0.86 | 7.69 | 1.00
Nc1c(Br)cc([N+](=O)[O-])cc1[N+](=O)[O-] [compound 2010] |  |  |  |  |  | 0.80 | 0.63 | 3.57
CC1(C)O[C@@H]2C[C@H]3[C@@H]4CCC5=CC(=O)C=C[C@]5(C)[C@@]4(F)[C@@H](O)C[C@]3(C)[C@]2(C(=O)CO)O1 [compound 848] | 0.75 | 1.28 | 2.43 |  |  |  |  | 
N[C@@H](CCCCNC(=O)OCc1ccccc1)C(=O)O [compound 1747] | 0.78 | 6.16 | 0.86 |  |  |  |  | 
ClCc1ccc(Cl)cc1 [compound 2129] | 3.23 | 0.75 | 0.95 |  |  |  |  | 
ClCCN1CCCCC1 [compound 254] | 4.09 | 0.90 | 0.98 |  |  |  |  | 
O=C(O)C1CCC1 [compound 1804] | 1.05 | 9.41 | 0.49 |  |  |  |  | 

— patent US6203976A, “Methods of preparing compositions comprising chemicals capable of transcriptional modulation” (OSI Pharmaceuticals, Inc., priority 1994, dated 2001)
